Measurements: patent publication US7220732B2, “Compounds useful as photodynamic therapeutic agents” (priority 2002, dated 2007)
Like-named read-outs stand apart in the source and are kept apart here.

Key:
Type in all cases: cell-based
MRC5 cells = assay: Fluorescence microscopy uptake study in MRC5 cells; settings: 10^−5 M
Method: Cells were seeded at a density of 30,000 cells/well in chamber slides and allowed to adhere for 24 hr. A compound of the present invention (10^−5 M) was then added to each chamber and incubated at 37° C. in the dark over time, for example, 15 min, 30 min, 1 hr, 3 hr and 6 hr. The medium was removed after the specified time and the cells were washed 4 times with medium free of that compound of the invention. The cells were then fixed with 3.7% (v/v) formaldehyde for 15 min at 37° C. The fixative solution was removed and the cells were washed twice with sterile PBS. DAPI nuclear stain (1/1000) was then incubated with the cells for 10 is min at 37° C., following which the cells were washed twice with PBS. Cells were then mounted in Vectashield (Trade Mark) mounting medium.
LabWorks (Bioimaging Systems) was used to calculate the average fluorescence intensity per cell for each of the different time points used in the uptake and efflux studies for the compounds of the present invention. […] The DAPI filter was used to accurately count the number of cells in each field of view and the rhodamine filter was used to quantify the fluorescence of the compounds of the present invention.
Using the assay method set out above under the heading “Fluorescence Microscopy”, the uptake of 2a was examined for HeLa and MRC5 […] cell lines and the data are illustrated in FIGS. 6a and 6b, respectively. […]

HeLa cells = assay: Light/dark cytotoxicity study (MTT) in HeLa cells
Method: MRC5 and HeLa cell cultures were maintained in MEM (minimum essential medium) containing 10% (v/v) foetal calf serum (FCS), 1% (v/v) non-essential amino acids, 2 μg/ml Fungizone (Trade Mark) (amphotericin B), 50 μg/ml penicillin, 50 μg/ml streptomycin, 20 mM HEPES and 1% (v/v) L-Glutamine. Cells were passaged at least twice before use in the cytotoxicity assays.
Stock haematoporphyrin water-dimethyl sulphoxide (DMSO) (100:1 (v/v)) solutions were diluted with MEM containing 10% FCS. Cells were seeded at 5,000 cells/well in 96-well plates and incubated for 24 hr at 37° C. The 24 hour incubation period was chosen having regard to the slower uptake of haernatoporphyrin in the absence of Cremophor, when compared to the compounds of the present invention in the presence of Cremophor (see below). Cells were then incubated with haematoporphyrin in the dark for 24 hr at 37° C. The haematoporphyrin laden culture medium was then removed by filtration, the cells were washed with PBS and fresh culture medium was added to each well. A 500 W light source, passed through a red glass and water filter barrier, (to ensure cells are irradiated with light of wavelength greater than 570 nm) was used to irradiate the plates for both 15 and 30 min. Following irradiation, the cells were incubated for a further 48 hr at 37° C. before being assessed for cell survival.
Stock 2a or 2b water-Cremophor EL (Trade Mark—CAS 61791-12-6) (1:250 (v/v)) solutions were diluted with MEM containing 10% FCS. Cells were seeded at 5,000 cells/well in 96-well plates and incubated for 24 hr at 37° C. Cells were then incubated with 2a or 2b in the dark for 3 hr at 37° C. The 3 hour incubation period was chosen to reflect the faster cellular uptake of 2a or 2b in the presence of Cremophor, when compared to the cellular uptake of haematoporphyrins in the absence of Cremophor. The 2a or 2b laden culture medium was then removed by filtration, the cells were washed with PBS and fresh culture medium was added to each well. The plates were then irradiated using a 500 W light source passed through a red glass and water filter barrier, (thereby ensuring cells are irradiated with light of wavelength greater than 570 nm) for both 15 and 30 min.
Following irradiation, the cells were incubated for a further 48 hr at 37° C. before being assessed for cell survival. The dark toxicity of compounds of the present invention was also assessed in each experiment.
Cell viability was estimated using the standard MTT (microtiter tetrazolium) assay. This assay measures mitochondrial dehydrogenase activity and is based on the reduction of a soluble yellow tetrazolium salt to a blue, insoluble MTT formazan product by this enzyme. The subsequent colour change produced by viable cells was quantified using a plate reader (VICTOR^2 1420 multilabel HTS counter, Wallac). As mentioned above under the headings “Cytotoxicity”, the cells are incubated at 37° C. for 48 hours, following which the MTT solution was added to the cells at a final concentration of 0.5 mg/ml and incubated for 3 hr at 37° C. The MTT solution was then removed by filtration and 100 μl DMSO was added to each well in order to lyse the cells and release the formazan dye. The plates were read 1 hr later at 540 nm.
Prism (Trade Mark) […] was used to graph the data obtained from the MTT assays and the uptake/efflux experiments. This programme allows non-linear regression analysis and the generation of sigmoidal dose response curves. Prism (Trade Mark) also automatically calculates EC50 values.
Light toxicity assays were also carried out as described above under “Assay methods” in HeLa and MRC5 cells for haematoporphyrin (FIGS. 9 and 10), 2a (FIGS. 11 and 12) and 2b (FIGS. 13 and 14).

[1] = Confocal microscopy subcellular localisation; settings: FIGS. 17–19
Method: Cells were seeded at a density of 30,000 cells/well in chamber slides and allowed to adhere for 24 hr. 2a (10^−5 M) was then added to each chamber and incubated at 37° C. in the dark for either 1 hr or 3 hrs at 37° C.—a one hour incubation was used for FIGS. 4 and 5. The medium was removed and the cells were washed 4 times with drug-free (2a free) medium. The cells were then fixed with 3.7% (v/v) formaldehyde for 15 min at 37° C. The fixative solution was removed and the cells were washed twice with sterile PBS. DAPI (4′,6-diamidino-2-phenylindole) nuclear stain (1/1000) was then incubated with the cells for 10 min at 37° C., following which the cells were washed twice with PBS. Cells were then mounted in Vectashield (Trade Mark) mounting medium.
The cells were viewed using a Leica TCSSL Confocal Laser Scanning microscope (the LSM510 META Confocal Microscope was used to visualise DAPI and 2a simultaneously).
These could be lysosomes which have a typical size range of 0.2–2 μm; peroxisomes which have a typical size range of 0.5–1.5 μm; or endosomes which have a typical size range of 0.2–2 μm. It will be appreciated that localisation of the photosensitising compounds of the invention in different subcellular sites may impact on how effective the photodynamic therapy may be.

Question: Which “time of maximum uptake” value (MRC5 cells) does the source give for `F[B-]1(F)n2c(-c3ccccc3)cc(-c3ccccc3)c2N=C2C(c3ccccc3)=CC(c3ccccc3)=[N+]21` [Compound 2a] here?
Answer: 200 min

Question: What about the EC50 (HeLa cells; 0 J/cm^2 light (no light), read-out: EC50 (dark toxicity)) of the same compound?
Answer: 23 µM

Question: And the EC50 (HeLa cells; 8 J/cm^2 light (15 mins from a 500 W light source), read-out: EC50)?
Answer: 4.5 µM

Question: And the EC50 (HeLa cells; 16 J/cm^2 light (30 mins from a 500 W light source), read-out: EC50)?
Answer: 1.3 µM

Question: And the cellular localisation [1]?
Answer: both diffuse and punctuated cytoplasmic localisation
